Measured values: ChEMBL document CHEMBL1201862, “PubChem BioAssay data set” (2004)
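Compound exposure: 48 hours, 5 concentrations, 96-well plates. GI50 = concentration required for 50% inhibition of growth.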 Calls of active or inactive are those of the source. Rule as the data show it: active = GI50 up to about 1.1 µM and inactive = higher.

Tests used:
Experiment in all cases: NCI-60 cell line screen, 48 h
ACHN = tested on: ACHN
BT-549 = tested on: BT-549
DMS-114 = tested on: DMS-114
DU-145 = tested on: DU-145
HCC 2998 = tested on: HCC 2998
HCT-116 = tested on: HCT-116
HOP-92 = tested on: HOP-92
K562 = tested on: K562
KM12 = tested on: KM12
MDA-MB-231 = tested on: MDA-MB-231
MDA-N = tested on: MDA-N
NCI-H460 = tested on: NCI-H460
OVCAR-4 = tested on: OVCAR-4
PC-3 = tested on: PC-3
RPMI-8226 = tested on: RPMI-8226
RXF 393 = tested on: RXF 393
SK-MEL-28 = tested on: SK-MEL-28
SK-MEL-2 = tested on: SK-MEL-2
SK-MEL-5 = tested on: SK-MEL-5
UACC-62 = tested on: UACC-62

Measured: GI50

COc1cc(NCc2ccc3nc(N)nc(N)c3c2C)cc(OC)c1OC
inactive: MDA-MB-231 4.03 µM | OVCAR-4 22.4 µM | RXF 393 2.15 µM | SK-MEL-2 17.9 µM
active: ACHN 0.000395 µM | BT-549 0.685 µM | DMS-114 0.025 µM | DU-145 0.00102 µM | HCC 2998 0.109 µM | HCT-116 0.0352 µM | HOP-92 0.75 µM | K562 0.038 µM | KM12 0.0478 µM | MDA-N 0.0002 µM | NCI-H460 0.025 µM | PC-3 0.000383 µM | RPMI-8226 0.0562 µM | SK-MEL-28 0.313 µM | SK-MEL-5 0.0289 µM | UACC-62 0.025 µM

Cc1cn(C2CC(O)C(CO)O2)c(=O)[nH]c1=O (centres undefined)
inactive: ACHN 1840 µM | BT-549 > 5000 µM | DMS-114 728 µM | DU-145 > 4450 µM | HCC 2998 3680 µM | HCT-116 1930 µM | HOP-92 3020 µM | K562 1540 µM | KM12 > 4930 µM | MDA-MB-231 > 3520 µM | MDA-N 3780 µM | NCI-H460 655 µM | OVCAR-4 > 3890 µM | PC-3 > 5000 µM | RPMI-8226 2050 µM | RXF 393 2510 µM | SK-MEL-28 1360 µM | SK-MEL-2 3880 µM | SK-MEL-5 4450 µM | UACC-62 843 µM

COc1cc2c(cc1OC)C1(c3ccccc3)ON=C(c3ccccc3)N1CS2 (centres undefined)
inactive: ACHN > 100 µM | DMS-114 > 100 µM | HCC 2998 > 100 µM | HCT-116 28.7 µM | HOP-92 39.4 µM | K562 52.7 µM | KM12 > 100 µM | NCI-H460 > 100 µM | OVCAR-4 > 100 µM | RPMI-8226 67.6 µM | RXF 393 63 µM | SK-MEL-28 > 100 µM | SK-MEL-2 > 100 µM | SK-MEL-5 > 100 µM | UACC-62 45.8 µM

COc1ccc2c(=O)c([Se]c3coc4cc(OC)ccc4c3=O)coc2c1
inactive: ACHN 72.1 µM | DMS-114 17.4 µM | HCC 2998 > 100 µM | HCT-116 19.8 µM | HOP-92 > 100 µM | K562 > 100 µM | KM12 41.1 µM | NCI-H460 18.7 µM | OVCAR-4 44.6 µM | RPMI-8226 > 100 µM | RXF 393 48.6 µM | SK-MEL-28 52.1 µM | SK-MEL-2 > 100 µM | SK-MEL-5 > 100 µM | UACC-62 > 100 µM

COc1ccc(CN(O)C2C(CO)OC(n3cc(I)c(=O)[nH]c3=O)C2O)cc1 (centres undefined)
inactive: ACHN > 100 µM | DMS-114 > 100 µM | HCC 2998 > 100 µM | HCT-116 > 100 µM | HOP-92 > 100 µM | K562 > 100 µM | KM12 > 100 µM | NCI-H460 > 100 µM | OVCAR-4 > 100 µM | RPMI-8226 > 100 µM | RXF 393 > 100 µM | SK-MEL-28 > 100 µM | SK-MEL-2 > 100 µM | SK-MEL-5 > 100 µM | UACC-62 > 100 µM

COC(=O)C1CCC(C)CC1=O (centres undefined)
inactive: ACHN > 100 µM | DMS-114 > 100 µM | HCC 2998 > 100 µM | HCT-116 > 100 µM | HOP-92 > 100 µM | K562 > 100 µM | KM12 > 100 µM | NCI-H460 > 100 µM | OVCAR-4 > 100 µM | RPMI-8226 > 100 µM | RXF 393 > 100 µM | SK-MEL-28 > 100 µM | SK-MEL-2 > 100 µM | SK-MEL-5 > 100 µM | UACC-62 > 100 µM

COc1cc2c3c(c1OC)-c1ccccc1C(C(OC(C)=O)c1ccccc1)C3N(C)CC2 (centres undefined)
inactive: ACHN 14.8 µM | DMS-114 28.4 µM | HCC 2998 6.81 µM | HCT-116 34.5 µM | HOP-92 21 µM | K562 > 10 µM | KM12 25.7 µM | NCI-H460 30.5 µM | OVCAR-4 9.16 µM | RPMI-8226 5.55 µM | RXF 393 70.6 µM | SK-MEL-28 31.8 µM | SK-MEL-2 17.2 µM | SK-MEL-5 18.1 µM | UACC-62 34 µM

CCOC(=O)[C@H]1Nc2ccc([N+](=O)[O-])cc2C2c3ccccc3CC21 (some centres undefined)
inactive: ACHN 23.6 µM | DMS-114 15.9 µM | HCC 2998 21.3 µM | HCT-116 16.7 µM | K562 3.89 µM | KM12 29.9 µM | NCI-H460 18.8 µM | OVCAR-4 18.4 µM | RPMI-8226 16.9 µM | RXF 393 4.53 µM | SK-MEL-28 12.1 µM | SK-MEL-2 31.6 µM | SK-MEL-5 13.1 µM | UACC-62 12.2 µM

CCCCCCCCCCCCC(CC)CCCCC(=O)O (centres undefined)
inactive: ACHN > 100 µM | DMS-114 > 100 µM | HCC 2998 > 100 µM | HCT-116 > 53.1 µM | HOP-92 > 73.3 µM | K562 40.6 µM | KM12 > 100 µM | NCI-H460 > 62.4 µM | OVCAR-4 > 100 µM | RPMI-8226 > 56.4 µM | RXF 393 > 60 µM | SK-MEL-28 > 100 µM | SK-MEL-2 > 100 µM | SK-MEL-5 > 100 µM | UACC-62 > 100 µM
